29 molecules from ChEMBL document CHEMBL5260801, “Structure Based Design of Non-Natural Peptidic Macrocyclic Mcl-1 Inhibitors” (ACS Med Chem Lett, 2017) can be followed below.

One assay deals with BCL2/BCL2L11 (Homo sapiens, UniProt P10415). Description: Inhibition of his-tagged human recombinant Bcl-2 expressed in Escherichia coli /human Bim measured for 60 mins by TR-FRET based LanthaScreen Eu-Kinase binding assay. Background: TR-FRET usually uses a lanthanide donor and a delayed reading to cut background.
The target of assay [1] is Induced myeloid leukemia cell differentiation protein Mcl-1/Bcl-2-like protein 11 (Homo sapiens, UniProt Q07820). In words: Inhibition of N-terminal GST-tagged human recombinant Mcl-1 expressed in Escherichia coli /human Bim measured for 60 mins by TR-FRET based LanthaScreen Eu-Kinase binding assay.
Assay [2] has as its target T1, Induced myeloid leukemia cell differentiation protein Mcl-1 (Homo sapiens, UniProt Q07820). Description: Binding affinity to N-terminal his6-tagged human recombinant Mcl-1 expressed in Escherichia coli assessed as dissociation constant by SPR analysis. For orientation: In SPR one partner is held on a chip, and binding of the other changes the refractive index at the surface.

Assay [3] deals with T1, Induced myeloid leukemia cell differentiation protein Mcl-1. Description: Binding affinity to N-terminal his6-tagged human recombinant Mcl-1 expressed in Escherichia coli assessed as binding constant (Koff) by SPR analysis.
The target is the same in assay [4]. Description: Binding affinity to N-terminal his6-tagged human recombinant Mcl-1 expressed in Escherichia coli assessed as binding constant (Kon) by SPR analysis.
In the next assay the target is Bcl-xL/BAK (Homo sapiens, UniProt Q07817). In words: Inhibition of N-terminal GST-tagged Bcl-xL (1 to 209 residues) expressed in Escherichia coli /human Bak measured for 60 mins by TR-FRET based LanthaScreen Eu-Kinase binding assay.
The next assay relates to MV4-11. In words: Induction of apoptosis in human MV4-11 cells assessed as increase in caspase 3/7 activity measured after 6 hrs by Caspase-Glo 3/7 reagent based microplate reader analysis. Type of assay: functional, cell-based. Conditions: MV4-11, 6 h.

Chain of Induced myeloid leukemia cell differentiation protein Mcl-1/Bcl-2-like protein 11 (Q07820 whole entry): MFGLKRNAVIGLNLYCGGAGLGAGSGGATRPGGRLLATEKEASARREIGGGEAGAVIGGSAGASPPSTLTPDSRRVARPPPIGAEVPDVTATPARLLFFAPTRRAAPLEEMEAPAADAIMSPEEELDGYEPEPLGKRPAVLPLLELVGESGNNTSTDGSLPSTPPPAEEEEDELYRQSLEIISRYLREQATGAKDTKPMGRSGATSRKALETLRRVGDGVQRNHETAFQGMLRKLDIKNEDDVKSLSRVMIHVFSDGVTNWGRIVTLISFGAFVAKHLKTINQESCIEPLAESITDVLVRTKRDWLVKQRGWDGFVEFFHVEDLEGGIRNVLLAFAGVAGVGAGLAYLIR
Chain of Induced myeloid leukemia cell differentiation protein Mcl-1/Bcl-2-like protein 11 (O43521 whole entry, further chain): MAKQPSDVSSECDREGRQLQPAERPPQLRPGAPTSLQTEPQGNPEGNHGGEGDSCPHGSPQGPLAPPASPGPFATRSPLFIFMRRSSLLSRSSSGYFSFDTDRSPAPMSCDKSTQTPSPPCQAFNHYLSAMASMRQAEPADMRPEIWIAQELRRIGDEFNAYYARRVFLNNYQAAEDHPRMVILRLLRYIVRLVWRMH
T1 sequence (Q07820 whole entry): as the sequence (Q07820 whole entry) above
Chain of BCL2/BCL2L11 (P10415 whole entry): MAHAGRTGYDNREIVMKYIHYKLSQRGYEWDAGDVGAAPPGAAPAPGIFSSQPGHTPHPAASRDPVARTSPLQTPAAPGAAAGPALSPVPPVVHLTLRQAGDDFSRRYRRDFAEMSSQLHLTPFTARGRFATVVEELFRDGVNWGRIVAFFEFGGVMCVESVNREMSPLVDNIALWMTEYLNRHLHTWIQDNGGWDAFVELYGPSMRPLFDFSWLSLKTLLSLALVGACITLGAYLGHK
Chain of BCL2/BCL2L11 (O43521 whole entry, further chain): as the sequence (O43521 whole entry, further chain) above
Chain of Bcl-xL/BAK (Q07817 whole entry, the tested form may be a part): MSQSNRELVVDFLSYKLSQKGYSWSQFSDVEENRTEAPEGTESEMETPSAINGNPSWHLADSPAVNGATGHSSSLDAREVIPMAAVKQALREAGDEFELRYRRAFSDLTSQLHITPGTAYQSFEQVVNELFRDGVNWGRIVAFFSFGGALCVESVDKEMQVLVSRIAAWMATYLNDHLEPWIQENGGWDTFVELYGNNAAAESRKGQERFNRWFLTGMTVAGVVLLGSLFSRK
Chain of Bcl-xL/BAK (Q16611 whole entry, further chain, the tested form may be a part): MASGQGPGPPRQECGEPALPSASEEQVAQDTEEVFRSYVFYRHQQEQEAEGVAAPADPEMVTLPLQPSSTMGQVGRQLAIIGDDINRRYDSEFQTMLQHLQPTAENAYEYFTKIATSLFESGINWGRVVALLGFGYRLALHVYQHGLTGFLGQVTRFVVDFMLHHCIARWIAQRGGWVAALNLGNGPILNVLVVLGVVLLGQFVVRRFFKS

Consider `CN(C)C(=O)C[C@@H](Cc1ccc(Cl)c(Cl)c1)NC(=O)CN1C(=O)[C@@H](NC(=O)C[C@@H](N)Cc2ccc(Cl)cc2)CCc2ccccc21`, for which the results for the IC50 (on BCL2/BCL2L11; in assay [1]) were 1 µM and 2.25 µM, respectively.

`CNC(=O)C[C@@H](Cc1ccc(Cl)c(CCc2ccccc2)c1)NC(=O)CN1C(=O)[C@@H](NC(=O)C[C@@H](N)Cc2ccc(S(C)(=O)=O)cc2)CCc2ccccc21`: the half-maximal inhibitory concentration (IC50) stood at 1 µM on BCL2/BCL2L11 and 0.133 µM in assay [1].

Consider `CNC(=O)C[C@@H](Cc1ccc(Cl)cc1)NC(=O)CN1C(=O)[C@@H](NC(=O)C[C@@H](N)Cc2ccccc2)CCc2ccccc21`, for which the IC50 worked out at 1 µM at BCL2/BCL2L11 and 19.5 µM in assay [1].

As for `CNC(=O)C[C@@H](Cc1ccc(Cl)c(Cl)c1)NC(=O)CN1C(=O)[C@@H](NC(=O)C[C@@H](N)Cc2ccc(Br)cc2)CCc2ccccc21`, the results for the IC50 (at BCL2/BCL2L11; in assay [1]) were 1 µM and 1.49 µM, respectively.

For the molecule `CNC(=O)C[C@@H](Cc1cccc(Cl)c1)NC(=O)CN1C(=O)[C@@H](NC(=O)C[C@@H](N)Cc2ccc(Cl)cc2)CCc2ccccc21`, the values for the IC50 (at BCL2/BCL2L11; in assay [1]) were greater than 1 µM and 57.3 µM, respectively.

With `C[C@@H]1CCN(C)C(=O)C[C@@H](Cc2ccc(Cl)c(Cl)c2)NC(=O)CN2C(=O)[C@H](CCc3ccccc32)NC(=O)C[C@H](Cc2ccc(Cl)cc2)N1`, the figures for the IC50 (on BCL2/BCL2L11; in assay [1]) were 1 µM and 0.739 µM, respectively. In addition, the equilibrium dissociation constant (Kd) in assay [2] came to 3.54 µM.

Take `CN1CCCN[C@@H](Cc2ccc(S(N)(=O)=O)cc2)CC(=O)N[C@H]2CCc3ccccc3N(CC(=O)N[C@H](Cc3ccc(Cl)c(Cl)c3)CC1=O)C2=O`: the half-inhibitory concentration (IC50) on BCL2/BCL2L11 was found to be 1 µM; in assay [1], 0.558 µM. Also, in assay [2], the Kd stood at 0.72 µM.

As to `CN1CCCCCN[C@@H](Cc2ccc(Cl)cc2)CC(=O)N[C@H]2CCc3ccccc3N(CC(=O)N[C@H](Cc3ccc(Cl)c(Cl)c3)CC1=O)C2=O`, the 50% inhibitory concentration (IC50) was 1 µM at BCL2/BCL2L11 and 0.277 µM in assay [1]. Moreover, in assay [2], the Kd worked out at 0.53 µM.

For the molecule `CN1CCCN[C@@H](Cc2ccc(S(C)(=N)=O)cc2)CC(=O)N[C@H]2CCc3ccccc3N(CC(=O)N[C@H](Cc3ccc(Cl)c(Cl)c3)CC1=O)C2=O` (stereo not given in full), the results for the half-maximal inhibitory concentration (IC50) (at BCL2/BCL2L11; in assay [1]) were 1 µM and 0.51 µM, respectively. Also, the K was 0.476 s⁻¹ in assay [3] and 10.2 10^5/M.s in assay [4]. Further, the Kd in assay [2] was found to be 0.42 µM.

On to `CN1CCCN[C@@H](Cc2ccc(S(C)(=O)=O)cc2)CC(=O)N[C@H]2CCc3ccccc3N(CC(=O)N[C@H](Cc3ccc(Cl)c(/C=C/c4ccccc4)c3)CC1=O)C2=O`, for which the results for the IC50 (at BCL2/BCL2L11; in assay [1]) were greater than 1 µM and 0.375 µM, respectively. For the same molecule, in assay [2], the Kd is 1.2 µM.

Consider `CNC(=O)C[C@@H](Cc1ccc(Cl)c(CCc2ccccc2)c1)NC(=O)CN1C(=O)[C@@H](NC(=O)C[C@@H](N)Cc2ccc(Cl)cc2)CCc2ccccc21`, for which the half-inhibitory concentration (IC50) at BCL2/BCL2L11 stood at 1 µM; in assay [1] it was 0.193 µM.

`CNC(=O)C[C@@H](Cc1ccc(Cl)c(Cc2ccccc2)c1)NC(=O)CN1C(=O)[C@@H](NC(=O)C[C@@H](N)Cc2ccc(Cl)cc2)CCc2ccccc21`: the concentration for half-maximal inhibition (IC50) amounted to 1 µM at BCL2/BCL2L11 and 9.21 µM in assay [1].

Take `CCN[C@H](CC(=O)N[C@H]1CCc2ccccc2N(CC(=O)N[C@@H](CC(=O)NC)Cc2ccc(Cl)c(Cl)c2)C1=O)Cc1ccc(Cl)cc1`: the IC50 is 1 µM on BCL2/BCL2L11 and 2.1 µM in assay [1].

On to `CN1CCCN[C@@H](Cc2ccc(Cl)cc2)CC(=O)N[C@H]2CCc3ccccc3N(CC(=O)N[C@H](Cc3ccc(Cl)c(CCc4ccccc4)c3)CC1=O)C2=O`, for which the IC50 at BCL2/BCL2L11 was found to be 1 µM; in assay [1] it was 0.045 µM. The K in assay [3] was 0.073 s⁻¹; in assay [4], 3.7 10^5/M.s. Further, the Kd in assay [2] is 0.34 µM.

Take `CN1CCCN[C@@H](Cc2ccc(S(C)(=O)=O)cc2)CC(=O)N[C@H]2CCc3ccccc3N(CC(=O)N[C@H](Cc3ccc(Cl)c(Cl)c3)CC1=O)C2=O`: the results for the IC50 (at BCL2/BCL2L11; in assay [1]) were 1 µM and 0.116 µM, respectively. For the same molecule, the dissociation constant Kd in assay [2] was determined as 0.1 µM.

For `C[C@H]1CCN(C)C(=O)C[C@@H](Cc2ccc(Cl)c(Cl)c2)NC(=O)CN2C(=O)[C@H](CCc3ccccc32)NC(=O)C[C@H](Cc2ccc(Cl)cc2)N1`, the IC50 on BCL2/BCL2L11 was 1 µM; in assay [1], 0.048 µM. Further, the Kd in assay [2] stood at 0.12 µM.

With `CN1CCCN[C@@H](Cc2ccc(Cl)cc2)CC(=O)N[C@H]2CCc3ccccc3N(CC(=O)N[C@H](Cc3ccc(Cl)c(-c4cc5ccccc5o4)c3)CC1=O)C2=O`, the IC50 at BCL2/BCL2L11 was greater than 1 µM; in assay [1], 1.05 µM. For the same molecule, the K in assay [3] is 0.314 s⁻¹; in assay [4] it was 1.6 10^5/M.s. In assay [2], the Kd came out at 3.6 µM.

As for `CN1CCCN[C@@H](Cc2ccc(S(C)(=O)=O)cc2)CC(=O)N[C@H]2CCc3ccccc3N(CC(=O)N[C@H](Cc3ccc(Cl)c(CCc4ccccc4)c3)CC1=O)C2=O`, the IC50 at BCL2/BCL2L11 is 5.5 µM; in assay [1] it was less than 0.003 µM; on Bcl-xL/BAK it was greater than 99 µM. The values for the K in assay [3] and in assay [4] were 0.066 s⁻¹ and 33 10^5/M.s, respectively. For the same molecule, the Kd in assay [2] turned out to be 0.02 µM. Also, in the assay with MV4-11, the EC50 is 3.78 µM.

For the molecule `CNC(=O)C[C@@H](Cc1ccc(Cl)cc1)NC(=O)CN1C(=O)[C@@H](NC(=O)C[C@@H](N)Cc2ccc(Cl)cc2)CCc2ccccc21`, the IC50 at BCL2/BCL2L11 came out at 1 µM; in assay [1], 12.5 µM.

For `CN1CCCN[C@@H](Cc2ccc(S(C)(=O)=O)cc2)CC(=O)N[C@H]2CCc3ccccc3N(CC(=O)N[C@H](Cc3ccc(Cl)c(-c4cc5ccccc5o4)c3)CC1=O)C2=O`, the concentration for half-maximal inhibition (IC50) came out at 1 µM at BCL2/BCL2L11 and 0.116 µM in assay [1]. Moreover, the K in assay [3] was 0.336 s⁻¹; in assay [4], 9.5 10^5/M.s. Moreover, in assay [2], the Kd was 0.47 µM.

In the case of `CN1CCCN[C@@H](Cc2ccc(Cl)cc2)CC(=O)N[C@H]2CCc3ccccc3N(CC(=O)N[C@H](Cc3ccc(Cl)c(Cl)c3)CC1=O)C2=O`, the results for the IC50 (at BCL2/BCL2L11; in assay [1]) were 1 µM and 0.155 µM, respectively. Besides, the K was 0.212 s⁻¹ in assay [3] and 7.9 10^5/M.s in assay [4]. Besides, in assay [2], the Kd amounted to 0.37 µM.

`CN1CCCCN[C@@H](Cc2ccc(Cl)cc2)CC(=O)N[C@H]2CCc3ccccc3N(CC(=O)N[C@H](Cc3ccc(Cl)c(Cl)c3)CC1=O)C2=O`: the IC50 on BCL2/BCL2L11 turned out to be 1 µM; in assay [1] it was 0.122 µM. Besides, the values for the K in assay [3] and in assay [4] were 0.082 s⁻¹ and 2.9 10^5/M.s, respectively. Also, the Kd in assay [2] is 0.29 µM.

In the case of `CN1CCCN[C@@H](Cc2ccc(Cl)cc2)CC(=O)N[C@H]2CCc3ccccc3N(CC(=O)N[C@H](Cc3ccc(Cl)c(/C=C/c4ccccc4)c3)CC1=O)C2=O`, the figures for the half-inhibitory concentration (IC50) (at BCL2/BCL2L11; in assay [1]) were 1 µM and 2.23 µM, respectively. Also, in assay [2], the Kd is greater than 10 µM.

As for `CNC(=O)C[C@@H](Cc1ccc(Cl)c(Cl)c1)NC(=O)CN1C(=O)[C@@H](NC(=O)C[C@@H](N)Cc2ccc(Cl)cc2)CCc2ccccc21`, the figures for the IC50 (on BCL2/BCL2L11; in assay [1]) were 1 µM and 1.99 µM, respectively.

Consider `CN1CCCN[C@@H](Cc2ccc(S(C)(=O)=O)cc2)CC(=O)N[C@H]2CCc3ccccc3N(CC(=O)N[C@H](Cc3ccc(Cl)c(C#Cc4ccccc4)c3)CC1=O)C2=O`, for which the results for the IC50 (at BCL2/BCL2L11; in assay [1]) were 1 µM and 0.047 µM, respectively.

In the case of `O=C1C[C@@H](Cc2ccc(Cl)c(Cl)c2)NC(=O)CN2C(=O)[C@H](CCc3ccccc32)NC(=O)C[C@H](Cc2ccc(Cl)cc2)NCCCN1`, the values for the IC50 (on BCL2/BCL2L11; in assay [1]) were greater than 1 µM and 5.21 µM, respectively. In addition, the K in assay [3] is 0.158 s⁻¹; in assay [4] it was 0.53 10^5/M.s. In addition, the Kd in assay [2] was found to be 4.48 µM.

On to `CN1CCCN[C@@H](Cc2ccc([S+](C)[O-])cc2)CC(=O)N[C@H]2CCc3ccccc3N(CC(=O)N[C@H](Cc3ccc(Cl)c(Cl)c3)CC1=O)C2=O` (stereo not given in full), for which the figures for the concentration for half-maximal inhibition (IC50) (on BCL2/BCL2L11; in assay [1]) were 1 µM and 0.742 µM, respectively. In addition, in assay [2], the Kd worked out at 0.77 µM.

As to `CNC(=O)C[C@@H](Cc1ccc(Cl)c(-c2ccc(Cl)c(C)c2)c1)NC(=O)CN1C(=O)[C@@H](NC(=O)C[C@@H](N)Cc2ccc(Cl)cc2)CCc2ccccc21`, the IC50 at BCL2/BCL2L11 is greater than 1 µM; in assay [1] it was 1.93 µM.

As for `CN1CCCN[C@@H](Cc2ccc(S(C)(=O)=O)cc2)CC(=O)N[C@H]2CCc3ccccc3N(CC(=O)N[C@H](Cc3ccc(Cl)c(-c4ccc5ccccc5c4)c3)CC1=O)C2=O`, the IC50 at BCL2/BCL2L11 is 1 µM; in assay [1], 0.112 µM. The K in assay [3] was 0.213 s⁻¹; in assay [4], 6.6 10^5/M.s. For the same molecule, the Kd in assay [2] stood at 0.29 µM.

As usually defined, the IC50 is the midpoint of a concentration-inhibition curve. The term Kd denotes a measure of binding affinity in units of concentration. By EC50 is commonly meant the concentration giving half of the maximal effect.
